For one test, the target named is Chk-1 kinase (Homo sapiens (Human), UniProt O14757). The test can be described thus: Chk-1 Kinase Inhibiting Activity (33P-ATP filter assay, CHKtide substrate). In kind it is biochemical. The procedure: Chk-1 Kinase Inhibiting Activity
The compounds of the invention were tested for activity against Chk-1 kinase using the materials and protocols set out below.
Base Reaction buffer: 20 mM Hepes (pH 7.5), 10 mM MgCl2, 1 mM EGTA, 0.02% Brij35, 0.02 mg/ml BSA, 0.1 mM Na3VO4, 2 mM DTT, 1% DMSO
*Required cofactors are added individually to each kinase reaction
(i) Prepare indicated substrate in freshly prepared Base Reaction Buffer
(ii) Deliver any required cofactors to the substrate solution above
(iii) Deliver indicated kinase into the substrate solution and gently mix
(iv) Deliver compounds in DMSO into the kinase reaction mixture
(v) Deliver ^33P-ATP (specific activity 0.01 μCi/μl final) into the reaction mixture to initiate the reaction.
(vi) Incubate kinase reaction for 120 minutes at room temperature
(vii) Reactions are spotted onto P81 ion exchange paper (Whatman #3698-915)
(viii) Wash filters extensively in 0.1% phosphoric acid.
(ix) Dry filters and measure counts in scintillation counter
Recombinant full length construct, N-terminal GST tagged, purified from insect cells.
No special measures were taken to activate this kinase.
Final concentration in assay=0.5 nM
Peptide sequence: [[…]]
Final concentration in assay=20 μM
No additional cofactors are added to the reaction mixture
From the results obtained by following the above protocol, the IC50 values against Chk-1 kinase of each of the compounds of Examples 1-153 were determined and these are shown in Table 3.

The subject of another test is MIA PaCa-2 cells. The experiment in a line: Gemcitabine Combination Cell Assay (Cell Titer Glo). The test is classed as cell-based. The conditions noted are these: for pIC50: Chk1 inhibitor alone, read-out: Chk1 IC50; for pIC50 / 10xLS / 2xLS: MIA PaCa-2 cells, 72 h; for 10xLS: approximate concentration of Chk1 inhibitor that results in a 10-fold reduction in the IC50 of gemcitabine alone; for 2xLS: approximate concentration of Chk1 inhibitor that results in a two-fold reduction in the IC50 of gemcitabine alone. As for the experimental part:
Gemcitabine Combination Cell Assay
Exponentially growing MIA PaCa-2 (ATCC CRL-1420) cells are treated with trypsin to remove cells from the plate surface. Approximately 10,000 cells/well are plated in 96 well plates in RPMI containing 10% fetal bovine serum, 1% sodium pyruvate and 1% L-GlutaMax. Cells are allowed to adhere to the plate surface overnight. Serial half-log dilutions of Chk1 inhibitor test compounds and gemcitabine are made with a final highest concentration of 3000 nM and 100 nM, respectively. Chk1 inhibitors and gemcitabine are combined so that each concentration of Chk1 inhibitor is added to each concentration of gemcitabine. Each drug is also tested as a single agent. Drugs are added to adherent cells (in duplicate) and incubated for 72 h. At 72 h the cells are treated with Promega Cell Titer Glo reagent for approximately 15 minutes. Luminescence (relative light units, RLU) is recorded using a BMG Polarstar Omega plate reader. The single agent concentration that results in a 50% reduction in total signal (IC50) is calculated using PRISM software and a four-parameter non-linear regression curve fit. For combination studies the RLUs are plotted using PRISM on an XY plot with the gemcitabine concentration on the X axis and RLU on the Y axis. The RLU for each concentration of Chk1 inhibitor is plotted as a function of gemcitabine concentration. The IC50 for gemcitabine alone and at each concentration of Chk1 is determined using a four-parameter non-linear regression curve fit. The approximate concentration of Chk1 inhibitor that results in a two and ten-fold reduction in the IC50 of gemcitabine alone is calculated as an indication of synergistic potency.
From the results obtained by following the above protocol, the IC50 values against MIAPaca-2 cells of the Chk1 inhibitor alone (Chk1 IC50), the approximate concentration of Chk1 inhibitor that results in a two-fold (2×LS) and a 10-fold (10×LS) reduction in the IC50 of gemcitabine alone of each of the compounds of Examples 1-154 are shown in Table 4.
On the technique in general: ATP-based viability assays read luminescence as a measure of living cells.

The mark [1] stands for this setting: against Chk-1 kinase, read-out: IC50.

SMILES strings stand for the structures. pIC50: −log10 of the molar value. Where a name gives a salt, the structure may show the parent alone. Read-outs that look alike come from different tables or passages of the source.

Chain of Chk-1 kinase (O14757 whole entry): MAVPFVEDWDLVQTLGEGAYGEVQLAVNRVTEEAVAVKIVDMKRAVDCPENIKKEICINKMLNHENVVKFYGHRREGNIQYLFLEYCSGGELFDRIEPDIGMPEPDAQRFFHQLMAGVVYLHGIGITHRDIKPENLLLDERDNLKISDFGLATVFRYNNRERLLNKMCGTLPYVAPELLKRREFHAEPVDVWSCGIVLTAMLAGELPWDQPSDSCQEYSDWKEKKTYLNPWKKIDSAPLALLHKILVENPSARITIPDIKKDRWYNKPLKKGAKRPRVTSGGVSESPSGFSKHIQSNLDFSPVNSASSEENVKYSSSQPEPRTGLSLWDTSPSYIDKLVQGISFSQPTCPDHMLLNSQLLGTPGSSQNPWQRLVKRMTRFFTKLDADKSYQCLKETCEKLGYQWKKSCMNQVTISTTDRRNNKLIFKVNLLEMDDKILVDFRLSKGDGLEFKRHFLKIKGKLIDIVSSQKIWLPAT

Usually pIC50 stands for −log10 of the IC50, conventionally taken in molar units. Take `COc1cc(C2(F)CN(C)C2)ccc1-c1cc(Nc2cnc(C#N)cn2)n[nH]1` [Example 66, 5-[[5-[4-(3-fluoro-1-methyl-azetidin-3-yl)-2-methoxy-phenyl]-1H-pyrazol-3-yl]amino]pyrazine-2-carbonitrile]: at Chk-1 kinase (setting [1]), the pIC50 was 9.85. For the same molecule, the pIC50 with MIA PaCa-2 cells (Homo sapiens) is 6.95. Also, in the test on MIA PaCa-2 cells, the “10xLS” value is given as 30 nM and the “2xLS” value is below 3 nM.
For `COc1cc(O[C@H]2CCN(C)C2)ccc1-c1cc(Nc2cnc(C#N)cn2)n[nH]1` [Example 42, 5-[[5-[2-methoxy-4-[(3S)-1-methylpyrrolidin-3-yl]oxy-phenyl]-1H-pyrazol-3-yl]amino]pyrazine-2-carbonitrile], in that order: 9.68, 7.14, below 30 nM and below 3 nM.
Consider `COc1cc(CNC(C)(C)CN2CCOCC2)ccc1-c1cc(Nc2cnc(C#N)cn2)n[nH]1` [Example 19, 5-[[5-[4-[[(1,1-dimethyl-2-morpholino-ethyl)amino]methyl]-2-methoxy-phenyl]-1H-pyrazol-3-yl]amino]pyrazine-2-carbonitrile], for which the values for the pIC50 on Chk-1 kinase (setting [1]) and in the test on MIA PaCa-2 cells (Homo sapiens) were 9.54 and 5.79, respectively. In addition, the “10xLS” value in the test on MIA PaCa-2 cells is given as around 200 nM. Moreover, the “2xLS” value with MIA PaCa-2 cells is recorded as 3 nM.
In the case of `CCN1CCC(Nc2ccc(-c3cc(Nc4cnc(C#N)cn4)n[nH]3)c(OC)c2)CC1` [Example 111, 5-[[5-[4-[(1-ethyl-4-piperidyl)amino]-2-methoxy-phenyl]-1H-pyrazol-3-yl]amino]pyrazine-2-carbonitrile], the pIC50 at Chk-1 kinase (setting [1]) is 11.28. In addition, the pIC50 with MIA PaCa-2 cells (Homo sapiens) was 6.74. Further, in the test on MIA PaCa-2 cells, the “10xLS” value was determined as 100 nM and the “2xLS” value is given as below 3 nM.
The IC50 is the concentration that inhibits the measured activity by half. For `COc1cc(OC2CCN(C)CC2)ccc1-c1cc(Nc2cnc(C#N)cn2)n[nH]1` [Example 28, 5-[[5-[2-methoxy-4-[(1-methyl-4-piperidyl)oxy]phenyl]-1H-pyrazol-3-yl]amino]pyrazine-2-carbonitrile hydrochloride], the pIC50 at Chk-1 kinase (setting [1]) is 9.89. Further, in the test with MIA PaCa-2 cells (Homo sapiens, MIA PaCa-2, 72 h, read-out: Chk1 IC50 (nM)), the IC50 was determined as 279 nM. Besides, in the test with MIA PaCa-2 cells, the “10xLS” value is below 100 nM and the “2xLS” value is recorded as below 3 nM.
In the case of `COc1cc(CN[C@H](C)c2ccc(F)cc2)ccc1-c1cc(Nc2cnc(C#N)cn2)n[nH]1` [Example 7, 5-[5-(4-{[(R)-1-(4-fluoro-phenyl)-ethylamino]-methyl}-2-methoxy-phenyl)-1H-pyrazol-3-ylamino]-pyrazine-2-carbonitrile], the pIC50 at Chk-1 kinase (setting [1]) was 10.00. Besides, the pIC50 in the test on MIA PaCa-2 cells (Homo sapiens) was 6.68. Also, in the test with MIA PaCa-2 cells, the “10xLS” value is reported as around 200 nM and the “2xLS” value is 10 nM.
For `CCN1CCC(CNc2ccc(-c3cc(Nc4cnc(C#N)cn4)n[nH]3)c(OC)c2)CC1` [Example 108, 5-[[5-[4-[(1-ethyl-4-piperidyl)methylamino]-2-methoxy-phenyl]-1H-pyrazol-3-yl]amino]pyrazine-2-carbonitrile], in that order: 10.37, 7.11, 30 nM and below 3 nM.
For `COc1cc(C2CCN(C)CC2)c(Cl)cc1-c1cc(Nc2cnc(C#N)cn2)n[nH]1` [Example 67, 5-[[5-[5-chloro-2-methoxy-4-(1-methyl-4-piperidyl)phenyl]-1H-pyrazol-3-yl]amino]pyrazine-2-carbonitrile], in that order: 8.74, 5.88, 1000 nM and 100 nM.
On to `COc1cc(N2CCNCC2)ccc1-c1cc(Nc2cnc(C#N)cn2)n[nH]1` [Example 46, 5-[[5-(2-methoxy-4-piperazin-1-yl-phenyl)-1H-pyrazol-3-yl]amino]pyrazine-2-carbonitrile], for which the pIC50 against Chk-1 kinase is 10.27; in the test on MIA PaCa-2 cells (Homo sapiens), 6.35. Besides, the “10xLS” value in the test on MIA PaCa-2 cells is below 30 nM. In the test on MIA PaCa-2 cells, the “2xLS” value is reported as below 3 nM.
For `COc1cc(C2CN(C)C2)ccc1-c1cc(Nc2cnc(C#N)cn2)n[nH]1` [Example 65, 5-[[5-[2-methoxy-4-(1-methylazetidin-3-yl)phenyl]-1H-pyrazol-3-yl]amino]pyrazine-2-carbonitrile], the pIC50 on Chk-1 kinase (setting [1]) is 10.66; with MIA PaCa-2 cells (Homo sapiens), 6.84. In addition, in the test on MIA PaCa-2 cells, the “10xLS” value is recorded as below 100 nM. In addition, in the test on MIA PaCa-2 cells, the “2xLS” value was found to be 3 nM.
For `CCN1CCO[C@H](c2ccc(-c3cc(Nc4cnc(C#N)cn4)n[nH]3)c(OC)c2)C1` [Example 118, 5-[[5-[2-methoxy-4-[(2R)-4-ethylmorpholin-2-yl]phenyl]-1H-pyrazol-3-yl]amino]pyrazine-2-carbonitrile], in that order: 10.66, 5.92, 300 nM and 3 nM.
`CCN1CCC(CN(C)c2ccc(-c3cc(Nc4cnc(C#N)cn4)n[nH]3)c(OC)c2)CC1` [Example 145, 5-[[5-[4-[(1-ethyl-4-piperidyl)methyl-methyl-amino]-2-methoxy-phenyl]-1H-pyrazol-3-yl]amino]pyrazine-2-carbonitrile]: the pIC50 at Chk-1 kinase (setting [1]) is 11.08. In addition, the pIC50 in the test with MIA PaCa-2 cells (Homo sapiens) is 6.57. Also, in the test with MIA PaCa-2 cells, the “10xLS” value is below 100 nM and the “2xLS” value is reported as below 3 nM.
For `N#Cc1cnc(Nc2cc(-c3ccc(C4CCNCC4)cc3F)[nH]n2)cn1` [Example 51, 5-[[5-[2-fluoro-4-(4-piperidyl)phenyl]-1H-pyrazol-3-yl]amino]pyrazine-2-carbonitrile], in that order: 8.20, below 5.52, 3000 nM and 300 nM.
Consider `COc1cc(O[C@H]2CCN(C(C)C)C2)ccc1-c1cc(Nc2cnc(C#N)cn2)n[nH]1` [Example 94, 5-[[5-[4-[(3S)-1-isopropylpyrrolidin-3-yl]oxy-2-methoxy-phenyl]-1H-pyrazol-3-yl]amino]pyrazine-2-carbonitrile], for which the pIC50 at Chk-1 kinase (setting [1]) is 9.74. Besides, in the test on MIA PaCa-2 cells (Homo sapiens), the pIC50 was 6.32. Moreover, in the test with MIA PaCa-2 cells, the “10xLS” value turned out to be 100 nM and the “2xLS” value was 3 nM.
Consider `COc1cc(C2CCN(CCO)CC2)ccc1-c1cc(Nc2cnc(C#N)cn2)n[nH]1` [Example 99, 5-[[5-[4-[1-(2-hydroxyethyl)-4-piperidyl]-2-methoxy-phenyl]-1H-pyrazol-3-yl]amino]pyrazine-2-carbonitrile], for which the pIC50 on Chk-1 kinase (setting [1]) is 9.82. Moreover, the pIC50 in the test with MIA PaCa-2 cells (Homo sapiens) is 6.63. Also, in the test with MIA PaCa-2 cells, the “10xLS” value amounted to 30 nM and the “2xLS” value is below 3 nM.
As to `COc1cc(C2CCNCC2)ccc1-c1cc(Nc2ccc(C#N)cn2)n[nH]1` [Example 50, 6-[[5-[2-methoxy-4-(4-piperidyl)phenyl]-1H-pyrazol-3-yl]amino]pyridine-3-carbonitrile], the pIC50 at Chk-1 kinase (setting [1]) is 7.70; with MIA PaCa-2 cells (Homo sapiens) it was below 5.52. For the same molecule, the “10xLS” value in the test on MIA PaCa-2 cells came out at 3000 nM. Further, the “2xLS” value in the test with MIA PaCa-2 cells worked out at 300 nM.
For `COc1cc(N(C)CC2CCN(C(C)C)CC2)ccc1-c1cc(Nc2cnc(C#N)cn2)n[nH]1` [Example 148, 5-[[5-[4-[(1-isopropyl-4-piperidyl)methyl-methyl-amino]-2-methoxy-phenyl]-1H-pyrazol-3-yl]amino]pyrazine-2-carbonitrile], in that order: 10.51, 6.60, below 100 nM and below 3 nM.
For `COc1cc(CO[C@@H]2CCN(C(C)C)C2)ccc1-c1cc(Nc2cnc(C#N)cn2)n[nH]1` [Example 141, 5-[[5-[4-[[(3R)-1-isopropylpyrrolidin-3-yl]oxymethyl]-2-methoxy-phenyl]-1H-pyrazol-3-yl]amino]pyrazine-2-carbonitrile], in that order: 10.72, 6.01, below 300 nM and below 10 nM.

The values above are taken from patent publication US10010547B2 (CASCADIAN THERAPEUTICS, INC., priority 2014, dated 2018).
